# Laboratory results reported in ChEMBL document CHEMBL5131461, “Discovery of 4-(phenoxymethyl)-1H-1,2,3-triazole derivatives as novel xanthine oxidase inhibitors” (Bioorg Med Chem Lett, 2022).
# Active and inactive are the calls of the source. No cut-off for these calls is given here.
# Target: T1, Xanthine dehydrogenase/oxidase (Bos taurus, UniProt P80457)
# Test: Inhibition of bovine XO assessed as inhibition of uric acid formation using xanthine as substrate preincubated with enzyme for 10 mins followed by substrate addition and measured for 2 mins by spectrophotometry
# Conditions: not given
# T1 sequence (P80457 whole entry): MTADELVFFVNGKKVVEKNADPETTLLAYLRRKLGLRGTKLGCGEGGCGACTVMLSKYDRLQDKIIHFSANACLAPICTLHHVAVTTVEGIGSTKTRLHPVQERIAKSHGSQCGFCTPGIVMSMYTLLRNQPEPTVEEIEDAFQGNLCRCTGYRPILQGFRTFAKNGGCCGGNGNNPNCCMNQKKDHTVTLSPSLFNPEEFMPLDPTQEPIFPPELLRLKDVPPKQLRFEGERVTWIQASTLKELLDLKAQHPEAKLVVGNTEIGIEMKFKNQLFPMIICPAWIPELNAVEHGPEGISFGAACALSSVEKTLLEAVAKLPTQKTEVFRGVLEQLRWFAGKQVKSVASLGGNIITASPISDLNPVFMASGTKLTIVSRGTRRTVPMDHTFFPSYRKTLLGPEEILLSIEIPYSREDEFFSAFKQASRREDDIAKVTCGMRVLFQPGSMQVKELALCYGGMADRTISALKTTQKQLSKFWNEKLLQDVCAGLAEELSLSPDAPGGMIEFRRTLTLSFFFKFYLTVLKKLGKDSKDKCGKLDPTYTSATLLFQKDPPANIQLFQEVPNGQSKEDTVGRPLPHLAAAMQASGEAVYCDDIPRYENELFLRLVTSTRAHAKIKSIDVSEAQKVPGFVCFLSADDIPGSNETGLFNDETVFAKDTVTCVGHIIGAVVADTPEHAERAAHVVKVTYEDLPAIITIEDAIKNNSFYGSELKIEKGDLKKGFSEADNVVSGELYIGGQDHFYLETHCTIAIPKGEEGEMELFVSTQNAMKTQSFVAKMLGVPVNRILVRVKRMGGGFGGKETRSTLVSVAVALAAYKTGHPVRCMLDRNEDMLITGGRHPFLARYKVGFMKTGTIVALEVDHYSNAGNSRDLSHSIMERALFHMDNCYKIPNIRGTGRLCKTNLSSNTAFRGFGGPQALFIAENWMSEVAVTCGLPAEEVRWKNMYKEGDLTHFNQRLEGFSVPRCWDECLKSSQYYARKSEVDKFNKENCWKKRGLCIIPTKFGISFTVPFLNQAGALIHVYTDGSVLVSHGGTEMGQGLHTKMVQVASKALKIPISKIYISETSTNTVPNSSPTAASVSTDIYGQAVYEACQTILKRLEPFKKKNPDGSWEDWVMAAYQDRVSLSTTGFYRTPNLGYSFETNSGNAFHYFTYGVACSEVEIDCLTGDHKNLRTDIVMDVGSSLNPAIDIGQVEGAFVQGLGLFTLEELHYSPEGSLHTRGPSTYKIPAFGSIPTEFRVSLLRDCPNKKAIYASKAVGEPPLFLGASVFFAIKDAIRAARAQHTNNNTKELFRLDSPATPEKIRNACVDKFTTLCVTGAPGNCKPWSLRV
row,IC50 [nM],Compound
1,4150,N#Cc1ccccc1Cn1cc(COc2ccc(F)cc2C=O)nn1
2,700,COc1cccc(Cn2cc(COc3ccc(F)cc3C=O)nn2)c1
3,2070,COc1ccccc1Cn1cc(COc2cc(F)ccc2C=O)nn1
4,1180,Cc1cccc(Cn2cc(COc3ccc(F)cc3C=O)nn2)c1
5,5240,CCCn1cc(COc2ccc(F)cc2C=O)nn1
6,940,COc1ccccc1Cn1cc(COc2ccc(F)cc2C=O)nn1
7,14300,CC(C)Cn1cc(COc2ccc(F)cc2C=O)nn1
8,2220,N#Cc1ccccc1Cn1cc(COc2ccccc2C=O)nn1
9,18100,CCCCCn1cc(COc2ccccc2C=O)nn1
10,1020,COc1cccc(Cn2cc(COc3ccccc3C=O)nn2)c1
11,13500,CCCCn1cc(COc2ccccc2C=O)nn1
12,> 25000,O=Cc1ccccc1OCc1cn(Cc2ccccc2)nn1
13,1450,COc1ccccc1Cn1cc(COc2ccccc2C=O)nn1
14,1710,N#Cc1cccc(Cn2cc(COc3ccccc3C=O)nn2)c1
15,9360,CCC(C)n1cc(COc2ccc(F)cc2C=O)nn1 (configuration not stated)
16,2560,CC(C)n1cc(COc2ccc(F)cc2C=O)nn1
17,21800,CCC(C)n1cc(COc2ccccc2C=O)nn1 (configuration not stated)
18,2540,N#Cc1cccc(Cn2cc(COc3ccc(F)cc3C=O)nn2)c1
19,21100,CC(C)Cn1cc(COc2ccccc2C=O)nn1
20,1630,Cc1ccccc1Cn1cc(COc2ccccc2C=O)nn1
21,16000,CC(C)CCn1cc(COc2ccccc2C=O)nn1
22,3460,CCn1cc(COc2ccc(F)cc2C=O)nn1
23,1110,Cc1cccc(Cn2cc(COc3ccccc3C=O)nn2)c1
24,2990,CCCCCn1cc(COc2ccc(F)cc2C=O)nn1
25,2490,CCCCn1cc(COc2ccc(F)cc2C=O)nn1
26,2120,CC(C)CCn1cc(COc2ccc(F)cc2C=O)nn1
27,3590,CCCCn1cc(COc2cc(F)ccc2C=O)nn1
28,4010,Cc1ccccc1Cn1cc(COc2ccc(F)cc2C=O)nn1

# System: Rattus norvegicus
# Test: In vivo Hypouricemic activity against potassium oxonate-induced hyperuricemia rat model assessed as reduction in serum uric acid production at 8 mg/kg, po measured after 2 hrs
# Type: functional, organism-based
# Conditions: not given
row,Compound,Activity
1,Oc1ncnc2[nH]ncc12,Active

# System: Rattus norvegicus
# Test: In vivo Hypouricemic activity against potassium oxonate-induced hyperuricemia rat model assessed as reduction in serum uric acid production at 20 mg/kg, po measured after 2 hrs
# Type: functional, organism-based
# Conditions: not given
row,Compound,Activity
1,COc1cccc(Cn2cc(COc3ccc(F)cc3C=O)nn2)c1,Active

# System: Rattus norvegicus
# Test: In vivo Hypouricemic activity against potassium oxonate-induced hyperuricemia rat model assessed as reduction in AUC of serum uric acid level at 20 mg/kg, po measured after 0.5 to 8 hrs
# Type: functional, organism-based
# Conditions: time 0.5-8 hrs
row,Compound,Activity
1,COc1cccc(Cn2cc(COc3ccc(F)cc3C=O)nn2)c1,Active

# Target: T1, Xanthine dehydrogenase/oxidase
# Test: Potency index, ratio of allopurinol IC50 to test compound IC50 for bovine XO using xanthine as substrate by spectrophotometry
# Conditions: cattle
row,Compound,Ratio IC50
1,COc1cccc(Cn2cc(COc3ccc(F)cc3C=O)nn2)c1,14

# Target: T1, Xanthine dehydrogenase/oxidase
# Test: Inhibition of bovine XO assessed as inhibition of uric acid formation using xanthine as substrate at 25 uM preincubated with enzyme for 10 mins followed by substrate addition and measured for 2 mins by spectrophotometry
# Conditions: cattle, time 12 min
row,inhibition at 25 µM [%],Compound
1,< 50,CC(C)n1cc(COc2ccccc2C=O)nn1
2,< 50,O=Cc1ccccc1OCc1cn(Cc2ccccc2)nn1
3,< 50,COc1ccccc1Cn1cc(COc2ccccc2[N+](=O)[O-])nn1
4,< 50,CCCn1cc(COc2ccccc2C=O)nn1
5,< 50,COc1cccc(Cn2cc(COc3ccccc3C#N)nn2)c1
6,< 50,COc1cccc(Cn2cc(COc3cc(F)ccc3C=O)nn2)c1
7,< 50,COc1cccc(Cn2cc(COc3ccccc3[N+](=O)[O-])nn2)c1
8,< 50,COc1ccccc1Cn1cc(COc2ccccc2C#N)nn1
9,< 50,CC(C)CCn1cc(COc2cc(F)ccc2C=O)nn1
10,< 50,CCn1cc(COc2ccccc2C=O)nn1
